Read-outs that look alike come from different tables or passages of the source. Numbered stars: 1 amine (or outer) side, 2 acyl side, 3 side chain; on linkers, the order of the positions; unused ones are H or OH. Bridge positions count the residues as written; N and C are the ends. Square brackets hold non-standard residues; d marks the D form. Peptide text beside a SMILES is read from it. Phe(4-guanidino) = N=C(N)Nc1ccc(C[C@H](N)C(=O)O)cc1; TBMB = c1c(C[*:1])cc(C[*:3])cc1C[*:2]; NMeR = CN[C@@H](CCCNC(=N)N)C(=O)O; hArg = N=C(N)NCCCC[C@H](N)C(=O)O; Chg = N[C@H](C(=O)O)C1CCCCC1; Phg = N[C@H](C(=O)O)c1ccccc1; Tle = CC(C)(C)[C@H](N)C(=O)O; Aze = O=C(O)[C@@H]1CCN1
Assays:
human plasma Kallikrein = target: T1, human plasma Kallikrein (Homo sapiens, UniProt P03952); test: Functional enzyme inhibition assay with fluorogenic substrate Z-PheArg-AMC, human plasma Kallikrein; type: biochemical; details: for F (Kivar/KiWT): ratio of Ki to wild type
T1 construct: purchased Stratech, UK
T1 sequence (P03952 20-638): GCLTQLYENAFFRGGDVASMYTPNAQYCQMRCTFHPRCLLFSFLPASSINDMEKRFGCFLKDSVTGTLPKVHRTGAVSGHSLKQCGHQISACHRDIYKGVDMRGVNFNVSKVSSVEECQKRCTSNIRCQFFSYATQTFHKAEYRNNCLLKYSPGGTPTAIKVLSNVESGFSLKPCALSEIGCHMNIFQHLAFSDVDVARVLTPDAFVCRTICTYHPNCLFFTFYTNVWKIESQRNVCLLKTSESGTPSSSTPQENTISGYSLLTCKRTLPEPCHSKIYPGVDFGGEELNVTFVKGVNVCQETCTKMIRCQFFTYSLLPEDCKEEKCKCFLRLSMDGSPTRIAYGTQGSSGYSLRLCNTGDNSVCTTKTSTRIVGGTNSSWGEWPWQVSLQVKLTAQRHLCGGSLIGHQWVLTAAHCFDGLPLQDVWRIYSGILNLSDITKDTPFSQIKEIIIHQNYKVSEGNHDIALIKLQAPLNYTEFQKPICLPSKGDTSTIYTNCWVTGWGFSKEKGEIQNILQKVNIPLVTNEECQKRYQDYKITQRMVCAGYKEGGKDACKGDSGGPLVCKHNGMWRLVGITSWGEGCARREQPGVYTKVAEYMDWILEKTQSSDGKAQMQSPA
Outline: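 Rates of AMC release (excitation 360 nm, emission 460 nm) from 100 μM final Z-PheArg-AMC, 4% DMSO, were taken over the linear phase, typically 5 to 45 minutes. IC50 from four-parameter non-linear regression; Ki also derived.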

rat plasma Kallikrein [1] = target: T2, rat plasma Kallikrein (Rattus norvegicus, UniProt P14272); test: Functional enzyme inhibition assay with fluorogenic substrate Z-PheArg-AMC, rat plasma Kallikrein; type: biochemical
T2 construct: polyhistidine tag (N, cleaved yes); proTEV cleavage site (pro-peptide linker) (N, cleaved yes); made in house; host or cells: HEK-293 (suspension-adapted)
T2 sequence (P14272 391-638 limits assumed): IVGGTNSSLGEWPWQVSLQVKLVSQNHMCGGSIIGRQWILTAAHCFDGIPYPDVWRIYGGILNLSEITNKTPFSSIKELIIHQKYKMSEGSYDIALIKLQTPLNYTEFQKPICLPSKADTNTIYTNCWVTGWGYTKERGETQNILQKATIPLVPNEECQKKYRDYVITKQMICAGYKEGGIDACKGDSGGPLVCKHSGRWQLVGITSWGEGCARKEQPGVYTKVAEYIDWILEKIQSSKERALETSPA
Description: Functional enzyme assays were conducted in 10 mM Tris HCl, 150 mM NaCl, 10 mM MgCl2, 1 mM CaCl2) and 1 mg/mL BSA (all Sigma UK) pH7.4 at 25° C. in solid black 96 well plates. Briefly 26.5 pM human plasma Kallikrein (purchased from Stratech, UK) or 500 pM rat plasma Kallikrein (expressed and purified in house) were incubated in the absence or presence of increasing concentrations of test peptide for 15 minutes before addition of the fluorogenic substrate Z-PheArg-AMC (Enzo Lifesciences UK) to a final assay concentration of 100 μM in 4% DMSO. Release of AMC was measured using a Pherastar FS (BMG Labtech), excitation 360 nm, emission 460 nm. The rate of the linear phase of the reaction, typically 5 to 45 minutes, was calculated in MARS data analysis software (BMG labtech). The rate was then used to calculate the IC50 and Ki in Prism (GraphPad). A four parameter inhibition non-linear regression equation was used to calculate the IC50.
Peptides were dissolved as the TFA-salts in their powder form, and stock solutions were usually prepared in water. All solutions were centrifuged and filtered ([…] syringe filters) prior absorption measurement at 280 nm. Extinction coefficients were calculated based on the Trp/Tyr content of the peptide, and that of TMB (the TMB core, when contained in a peptide, has an ε of ˜300 M^−1cm^−1). For peptides containing non-natural amino acids with suspected chromophoric properties (i.e. NorHar, 4PhenylPro, 3Pal, 4Pal, Tic, 4GuanPhe, 4,4-BPAI, 3,3-DPA, 1NAI, 2NAI, 4BenzylPro, Ind) concentrations were determined by weighing the powder and dissolving the peptide in a defined quantity of water.

[2] = Plasma stability / fragment profiling Method #2 (MALDI-TOF, 95% plasma), human plasma; type: in vitro ADME; details: for Fragments (human plasma): Table 3a, peptide fragments observed after incubation in human plasma
Outline: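 Peptide at 50 uM final in 95% human plasma without PBS; timed samples frozen at −80 °C, then extracted with 1:1 acetonitrile:methanol. Supernatant mixed with 30 mM ammonium bicarbonate and analysed by MALDI-TOF; qualitative fragment profiling of relative stability over time.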

rat plasma Kallikrein [3] = target: T2, rat plasma Kallikrein; details: Table 1; read-out: Ki (nM) (rat kallikrein); cited from earlier work
[4] = Table 26b, loop 1 and loop 2 modified derivatives, read-out: Ki (nM) (human kallikrein)
[5] = Table 26b, loop 1 and loop 2 modified derivatives
[6] = Table 24a, residue 6 modification in the context of Ac-(06-34-18) Phe2 Tyr4, read-out: Ki (nM) Ac-(06-34-18) Phe2 Tyr4
[7] = Table 26a, loop2 stability enhanced candidates
[8] = Table 3a, Alanine scan in Loop2, read-out: Ki

SMILES: CC(=O)N[C@H]1CSCc2cc3cc(c2)CSC[C@H](NC(=O)[C@H](CCCCNC(=N)N)NC(=O)[C@H](Cc2ccc(O)cc2)NC(=O)[C@@H]2CCN2C(=O)[C@H](Cc2ccccc2)NC(=O)[C@H](CO)NC1=O)C(=O)N[C@@H](c1ccccc1)C(=O)N[C@@H](Cc1c[nH]cn1)C(=O)N[C@@H](CCC(N)=O)C(=O)N[C@@H](CC(=O)O)C(=O)N[C@@H](CC(C)C)C(=O)N[C@H](C(N)=O)CSC3 [Ac-(06-34-18) Phe2 Aze3 Tyr4 HArg5 Phg6] (Ac-CSF[Aze]Y[hArg]C[Phg]HQDLC-NH2; linker 1-7-13 via TBMB)
- Ki (human plasma Kallikrein; [4]): 0.32 nM
- Ki (rat plasma Kallikrein [1]; [5]): 12 nM

SMILES: CC(=O)N[C@H]1CSCc2cc3cc(c2)CSC[C@H](NC(=O)[C@H](CCCNC(=N)N)NC(=O)[C@H](Cc2ccc(O)cc2)NC(=O)[C@@H]2CCCN2C(=O)[C@H](Cc2ccccc2)NC(=O)[C@H](CO)NC1=O)C(=O)N[C@@H](C(C)(C)C)C(=O)N[C@@H](Cc1c[nH]cn1)C(=O)N[C@@H](CCC(N)=O)C(=O)N[C@@H](CC(=O)O)C(=O)N[C@@H](CC(C)C)C(=O)N[C@H](C(N)=O)CSC3 [Ac-(06-34-18) Phe2 Tyr4 tBuGly6] (Ac-CSFPYRC[Tle]HQDLC-NH2; linker 1-7-13 via TBMB)
- Ki (human plasma Kallikrein; [6]): 3.76 nM
- Ki (rat plasma Kallikrein [1]; [7]): 218 nM
- degradation / fragments in human plasma (in words) ([2]; running text and figure legends): only removal of Arg5 in the first loop

SMILES: CC(=O)N[C@H]1CSCc2cc3cc(c2)CSC[C@H](NC(=O)[C@H](CCCNC(=N)N)N(C)C(=O)[C@H](Cc2ccc(O)cc2)NC(=O)[C@@H]2CCN2C(=O)[C@H](Cc2ccccc2)NC(=O)[C@H](CO)NC1=O)C(=O)N[C@@H](CC(C)C)C(=O)N[C@@H](Cc1c[nH]cn1)C(=O)N[C@@H](CCC(N)=O)C(=O)N[C@@H](CC(=O)O)C(=O)N[C@@H](CC(C)C)C(=O)N[C@H](C(N)=O)CSC3 [Ac-(06-34-18) Phe2 Aze3Tyr4 NMeArg5] (Ac-CSF[Aze]Y[NMeR]CLHQDLC-NH2; linker 1-7-13 via TBMB)
- Ki (rat plasma Kallikrein [3]): 31.4 nM

SMILES: CC(=O)N[C@H]1CSCc2cc3cc(c2)CSC[C@H](NC(=O)[C@H](CCCCNC(=N)N)NC(=O)[C@H](C)NC(=O)[C@@H]2CCN2C(=O)[C@H](Cc2c[nH]c4ccccc24)NC(=O)[C@H](CO)NC1=O)C(=O)N[C@@H](c1ccccc1)C(=O)N[C@@H](Cc1c[nH]cn1)C(=O)N[C@@H](CCC(N)=O)C(=O)N[C@@H](CC(=O)O)C(=O)N[C@@H](CC(C)C)C(=O)N[C@H](C(N)=O)CSC3 [Ac-(06-34-18) Aze3 HArg5 Phg6] (Ac-CSW[Aze]A[hArg]C[Phg]HQDLC-NH2; linker 1-7-13 via TBMB)
- Ki (human plasma Kallikrein; [4]): 0.52 nM
- Ki (rat plasma Kallikrein [1]; [5]): 57 nM

SMILES: CC(=O)N[C@H]1CSCc2cc3cc(c2)CSC[C@H](NC(=O)[C@H](Cc2ccc(NC(=N)N)cc2)NC(=O)[C@H](Cc2ccc(O)cc2)NC(=O)[C@@H]2CCN2C(=O)[C@H](Cc2ccccc2)NC(=O)[C@H](CO)NC1=O)C(=O)N[C@@H](CC(C)C)C(=O)N[C@@H](Cc1c[nH]cn1)C(=O)N[C@@H](CCC(N)=O)C(=O)N[C@@H](CC(=O)O)C(=O)N[C@@H](CC(C)C)C(=O)N[C@H](C(N)=O)CSC3 [Ac-(06-34-18) Phe2 Aze3Tyr4 4GuanPhe5] (Ac-CSF[Aze]Y[Phe(4-guanidino)]CLHQDLC-NH2; linker 1-7-13 via TBMB)
- Ki (rat plasma Kallikrein [3]): 1.2 nM

SMILES: CC(=O)N[C@H]1CSCc2cc3cc(c2)CSC[C@H](NC(=O)[C@H](CCCNC(=N)N)NC(=O)[C@H](Cc2ccc(O)cc2)NC(=O)[C@@H]2CCCN2C(=O)[C@H](Cc2ccccc2)NC(=O)[C@H](CO)NC1=O)C(=O)N[C@@H](c1ccccc1)C(=O)N[C@@H](Cc1c[nH]cn1)C(=O)N[C@@H](CCC(N)=O)C(=O)N[C@@H](CC(=O)O)C(=O)N[C@@H](CC(C)C)C(=O)N[C@H](C(N)=O)CSC3 [Ac-(06-34-18) Phe2 Tyr4 Phg6] (Ac-CSFPYRC[Phg]HQDLC-NH2; linker 1-7-13 via TBMB)
- Ki (human plasma Kallikrein; [6]): 0.3 nM
- Ki (rat plasma Kallikrein [1]; [7]): 7.23 nM

SMILES: CC(=O)N[C@H]1CSCc2cc3cc(c2)CSC[C@H](NC(=O)[C@H](CCCCNC(=N)N)NC(=O)[C@H](Cc2ccc(O)cc2)NC(=O)[C@@H]2CCN2C(=O)[C@H](Cc2ccccc2)NC(=O)[C@H](CO)NC1=O)C(=O)N[C@@H](C)CN[C@@H](Cc1c[nH]cn1)C(=O)N[C@@H](CCC(N)=O)C(=O)N[C@@H](CC(=O)O)C(=O)N[C@@H](CC(C)C)C(=O)N[C@H](C(N)=O)CSC3
- Ki (human plasma Kallikrein; [4]): 0.44 nM
- Ki (rat plasma Kallikrein [1]; [5]): 41 nM

SMILES: CC(=O)N[C@H]1CSCc2cc3cc(c2)CSC[C@H](NC(=O)[C@H](CCCCNC(=N)N)NC(=O)[C@H](Cc2ccc(O)cc2)NC(=O)[C@@H]2CCN2C(=O)[C@H](Cc2ccccc2)NC(=O)[C@H](CO)NC1=O)C(=O)N[C@@H](CC(C)C)C(=O)N[C@@H](Cc1c[nH]cn1)C(=O)N[C@@H](CCC(=O)O)C(=O)N[C@@H](CC(=O)O)C(=O)N[C@@H](CC(C)C)C(=O)N[C@H](C(N)=O)CSC3 [Ac-(06-34-18) Phe2 Aze3 Tyr4 HArg5 Glu8] (Ac-CSF[Aze]Y[hArg]CLHEDLC-NH2; linker 1-7-13 via TBMB)
- Ki (human plasma Kallikrein; [4]): 1.65 nM
- Ki (rat plasma Kallikrein [1]; [5]): 23 nM

SMILES: CC(=O)N[C@H]1CSCc2cc3cc(c2)CSC[C@H](NC(=O)[C@H](CCCNC(=N)N)NC(=O)[C@H](Cc2ccc(O)cc2)NC(=O)[C@@H]2CCCN2C(=O)[C@H](Cc2ccccc2)NC(=O)[C@H](CO)NC1=O)C(=O)N[C@@H](C1CCCCC1)C(=O)N[C@@H](Cc1c[nH]cn1)C(=O)N[C@@H](CCC(N)=O)C(=O)N[C@@H](CC(=O)O)C(=O)N[C@@H](CC(C)C)C(=O)N[C@H](C(N)=O)CSC3 [Ac-(06-34-18) Phe2 Tyr4 Chg6] (Ac-CSFPYRC[Chg]HQDLC-NH2; linker 1-7-13 via TBMB)
- Ki (human plasma Kallikrein; [6]): 0.5 nM
- Ki (rat plasma Kallikrein [1]; [7]): 9.09 nM

SMILES: CC(=O)N[C@H]1CSCc2cc3cc(c2)CSC[C@H](NC(=O)[C@H](CCCCNC(=N)N)NC(=O)[C@H](Cc2ccc(O)cc2)NC(=O)[C@@H]2CCN2C(=O)[C@H](Cc2ccccc2)NC(=O)[C@H](CO)NC1=O)C(=O)N[C@@H](CC(C)C)C(=O)N[C@@H](Cc1c[nH]cn1)C(=O)N[C@@H](CCC(N)=O)C(=O)N[C@@H](CC(=O)O)C(=O)N[C@@H](CC(C)C)C(=O)N[C@H](C(N)=O)CSC3 [Ac-(06-34-18) Phe2 Aze3 Tyr4 HomoArg5] (Ac-CSF[Aze]Y[hArg]CLHQDLC-NH2; linker 1-7-13 via TBMB)
- Ki (rat plasma Kallikrein [3]): 3 nM

SMILES: CC(=O)N[C@H]1CSCc2cc3cc(c2)CSC[C@H](NC(=O)[C@H](CCCNC(=N)N)NC(=O)[C@H](Cc2ccc(O)cc2)NC(=O)[C@@H]2CCN2C(=O)[C@H](Cc2ccccc2)NC(=O)[C@H](CO)NC1=O)C(=O)N[C@@H](C(C)(C)C)C(=O)N[C@@H](Cc1c[nH]cn1)C(=O)N[C@@H](CCC(N)=O)C(=O)N[C@@H](CC(=O)O)C(=O)N[C@@H](CC(C)C)C(=O)N[C@H](C(N)=O)CSC3 [Ac-(06-34-18) Phe2 Aze3 Tyr4 tBuGly6] (Ac-CSF[Aze]YRC[Tle]HQDLC-NH2; linker 1-7-13 via TBMB)
- Ki (human plasma Kallikrein; [4]): 1.91 nM
- Ki (rat plasma Kallikrein [1]; [5]): 193 nM

SMILES: CC(=O)N[C@H]1CSCc2cc3cc(c2)CSC[C@H](NC(=O)[C@H](CCCNC(=N)N)NC(=O)[C@H](Cc2ccc(O)cc2)NC(=O)[C@@H]2CCCN2C(=O)[C@H](Cc2ccccc2)NC(=O)[C@H](CO)NC1=O)C(=O)N[C@@H](CC(C)C)C(=O)N[C@@H](Cc1c[nH]cn1)C(=O)N[C@@H](CCC(N)=O)C(=O)N[C@@H](C)C(=O)N[C@@H](CC(C)C)C(=O)N[C@H](C(N)=O)CSC3 [Ac-(06-34-18) Phe2 Tyr4 Ala9] (Ac-CSFPYRCLHQALC-NH2; linker 1-7-13 via TBMB)
- Ki (human plasma Kallikrein; [8]): 1.58 nM
- F (Kivar/KiWT) (human plasma Kallikrein; Table 3a): 4
- Fragments (human plasma) [2]: -LHQDL, -R

SMILES: CC(=O)N[C@H]1CSCc2cc3cc(c2)CSC[C@H](NC(=O)[C@H](CCCNC(=N)N)NC(=O)[C@H](Cc2ccc(O)cc2)NC(=O)[C@@H]2CCCN2C(=O)[C@H](Cc2ccccc2)NC(=O)[C@H](CO)NC1=O)C(=O)N[C@@H](CC(C)C)C(=O)N[C@@H](Cc1c[nH]cn1)C(=O)N[C@@H](CCC(N)=O)C(=O)N[C@@H](CC(=O)O)C(=O)N[C@@H](C)C(=O)N[C@H](C(N)=O)CSC3 [Ac-(06-34-18) Phe2 Tyr4 Ala10] (Ac-CSFPYRCLHQDAC-NH2; linker 1-7-13 via TBMB)
- Ki (human plasma Kallikrein; [8]): 13.5 nM
- F (Kivar/KiWT) (human plasma Kallikrein; Table 3a): 32
- Fragments (human plasma) [2]: -LHQ, -LHQDL, -R

Source: US10118947B2, “Modulation of structured polypeptide specificity” (BICYCLE THERAPEUTICS LIMITED, priority 2013, dated 2018)
